Assay results taken from PMC4018175 (Journal of Medicinal Chemistry, 2014).
Where a name gives a salt, the structure may show the parent alone.

How the values were obtained:
P2Y6R [1] = target: T1, P2Y6R (Homo sapiens, UniProt Q15077); assay: Fluorescent ligand binding of 28 by flow cytometry; details: 100 nM for 30 min at 37 °C in the presence of 125 (100 μM)
P2Y6R [2] = target: T1, P2Y6R; assay: Fluorescence microscopy of P2Y6R-expressing 1321N1 astrocytoma cells; type: cell-based; details: 1 μM, 30 min at 37 °C, in presence and absence of 118 (10 μM)

T1 sequence (Q15077 whole entry): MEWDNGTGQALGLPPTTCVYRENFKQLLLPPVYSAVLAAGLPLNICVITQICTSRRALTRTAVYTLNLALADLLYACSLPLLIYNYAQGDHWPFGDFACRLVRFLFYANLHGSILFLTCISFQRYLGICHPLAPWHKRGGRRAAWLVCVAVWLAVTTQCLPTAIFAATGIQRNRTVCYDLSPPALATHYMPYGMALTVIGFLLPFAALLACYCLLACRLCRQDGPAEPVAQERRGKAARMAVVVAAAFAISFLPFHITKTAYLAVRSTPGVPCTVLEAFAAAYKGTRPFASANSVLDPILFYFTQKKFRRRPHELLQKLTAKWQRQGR

SMILES: O=C(CCCCCNC(=O)COc1ccc(/C=C/c2ccc3n2[B-](F)(F)[N+]2=C(c4cccs4)C=CC2=C3)cc1)NCCCn1cc(CCNC(=O)COc2ccc(CCCO/N=c3/ccn([C@@H]4O[C@H](COP(=O)(O)OP(=O)(O)OP(=O)(O)O)[C@@H](O)[C@H]4O)c(=O)[nH]3)cc2)nn1 [Compound 28, N^4-(3-((4-O-CH2CONH-(CH2)2(BODIPY-1H-1,2,3-Triazol-4-yl))phenyl)propyloxy)cytidine-5′-triphosphate Triethylammonium Salt]
- Cell labeling by fluorescent ligand (FCM) (P2Y6R [1]): significant cell labeling
- Labeling of cells expressing the receptor (fluorescence microscopy) (P2Y6R [2]): specifically labeled cells expressing the receptor
